Where “and” joins values, the source holds several entries; their conditions need not be identical. Equal entries are not always repeated. Toxic doses and inconclusive results are not listed. No stated cut-off is given here; in the data, active means T/C of 150% or more; inactive means T/C below 125%.
Tested on: L1210 leukemia ip in BDF1 mice, survival T/C
Assay: NCI In Vivo Anticancer Drug Screen. Data for tumor model L1210 Leukemia (intraperitoneal) in B6D2F1 (BDF1) mice
Conditions: endpoint: mean survival time, higher = longer survival
Procedure, shortened: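 Read-out is survival time, reported as the treated-group measurement over the vehicle-control measurement.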

[1] = dose: 100.0 mg/kg/injection, schedule: Q01DX001 (ip), vehicle: saline
[2] = dose: 200.0 mg/kg/injection, schedule: Q01DX001 (ip), vehicle: saline
[3] = dose: 400.0 mg/kg/injection, schedule: Q01DX001 (ip), vehicle: saline
[4] = dose: 100.0 mg/kg/injection, schedule: Q04DX002 (ip), vehicle: Klucel (hydroxypropylcellulose) (HPC)
[5] = dose: 100.0 mg/kg/injection, schedule: Q01DX009 (ip), vehicle: saline
[6] = dose: 100.0 mg/kg/injection, schedule: Q04DX003 (ip), vehicle: saline
[7] = dose: 200.0 mg/kg/injection, schedule: Q01DX009 (ip), vehicle: saline
[8] = dose: 200.0 mg/kg/injection, schedule: Q04DX003 (ip), vehicle: saline
[9] = dose: 100.0 mg/kg/injection, schedule: Q04DX003 (ip), vehicle: saline with Tween-80
[10] = dose: 200.0 mg/kg/injection, schedule: Q04DX003 (ip), vehicle: saline with Tween-80
[11] = dose: 12.5 mg/kg/injection, schedule: Q04DX002 (ip), vehicle: saline with Tween-80
[12] = dose: 50.0 mg/kg/injection, schedule: Q04DX002 (ip), vehicle: saline with Tween-80
[13] = dose: 25.0 mg/kg/injection, schedule: Q01DX009 (ip), vehicle: Klucel (hydroxypropylcellulose) (HPC)
[14] = dose: 100.0 mg/kg/injection, schedule: Q04DX003 (ip), vehicle: Klucel (hydroxypropylcellulose) (HPC)
[15] = dose: 200.0 mg/kg/injection, schedule: Q04DX003 (ip), vehicle: Klucel (hydroxypropylcellulose) (HPC)
[16] = dose: 400.0 mg/kg/injection, schedule: Q04DX003 (ip), vehicle: Klucel (hydroxypropylcellulose) (HPC)

Measured: T/C

CCOC(=O)C1=NC(c2ccccc2)N(c2ccccc2)C1c1ccccc1 (centres undefined)
inactive: dose: 50.0 mg/kg/injection, schedule: Q01DX001 (ip), vehicle: saline 100 % of control | [1] 100 % of control | [2] 100 % of control | [3] 103 % of control

CC(C)Cc1cc(C#N)cc(C(C)(C)C)c1O
inactive: [4] 100 % of control | dose: 200.0 mg/kg/injection, schedule: Q04DX002 (ip), vehicle: Klucel (hydroxypropylcellulose) (HPC) 100 % of control | dose: 400.0 mg/kg/injection, schedule: Q04DX002 (ip), vehicle: Klucel (hydroxypropylcellulose) (HPC) 103 % of control

CCOC(=O)c1ccc(NCC(C)(C)[N+](=O)[O-])cc1
inactive: [5] 102 % of control | [6] 95 % of control | [7] 105 % of control | [8] 107 % of control | dose: 400.0 mg/kg/injection, schedule: Q01DX009 (ip), vehicle: saline 96 % of control and 105 % of control | dose: 400.0 mg/kg/injection, schedule: Q04DX003 (ip), vehicle: saline 91 % of control

CCOC(=O)CNc1ccc(C(=O)OCC)s1
inactive: dose: 31.25 mg/kg/injection, schedule: Q01DX009 (ip), vehicle: acetone 98 % of control | dose: 62.5 mg/kg/injection, schedule: Q01DX009 (ip), vehicle: acetone 100 % of control | dose: 125.0 mg/kg/injection, schedule: Q01DX009 (ip), vehicle: acetone 96 % of control | dose: 190.0 mg/kg/injection, schedule: Q01DX009 (ip), vehicle: saline 94 % of control | dose: 285.0 mg/kg/injection, schedule: Q01DX009 (ip), vehicle: saline 88 % of control

CCOC(=O)c1c(N)[nH]c(SSc2[nH]c(N)c(C(=O)OCC)c2C(=O)OCC)c1C(=O)OCC
inactive: [9] 99 % of control | [10] 96 % of control | dose: 400.0 mg/kg/injection, schedule: Q04DX003 (ip), vehicle: saline with Tween-80 89 % of control

CC1(C)OCC(C2OC(c3ccccc3)OC(CO)C2O)O1 (centres undefined)
inactive: [11] 87 % of control | dose: 25.0 mg/kg/injection, schedule: Q04DX002 (ip), vehicle: saline with Tween-80 101 % of control | [12] 100 % of control

O=C(O)/C=C\Br
inactive: [13] 91 % of control | dose: 50.0 mg/kg/injection, schedule: Q01DX005 (ip), vehicle: Klucel (hydroxypropylcellulose) (HPC) 95 % of control | dose: 50.0 mg/kg/injection, schedule: Q01DX009 (ip), vehicle: Klucel (hydroxypropylcellulose) (HPC) 106 % of control | dose: 100.0 mg/kg/injection, schedule: Q01DX005 (ip), vehicle: Klucel (hydroxypropylcellulose) (HPC) 103 % of control | dose: 100.0 mg/kg/injection, schedule: Q01DX009 (ip), vehicle: Klucel (hydroxypropylcellulose) (HPC) 98 % of control

c1cncc(-c2nnc(-c3cccnc3)o2)c1
inactive: [11] 124 % of control | [12] 91 % of control

CCCCN=Cc1ccccc1O.CCCCN=Cc1ccccc1O.[Cu]
inactive: dose: 6.25 mg/kg/injection, schedule: Q01DX009 (ip), vehicle: Klucel (hydroxypropylcellulose) (HPC) 91 % of control | dose: 12.5 mg/kg/injection, schedule: Q04DX002 (ip), vehicle: Klucel (hydroxypropylcellulose) (HPC) 107 % of control | [13] 97 % of control | dose: 25.0 mg/kg/injection, schedule: Q04DX002 (ip), vehicle: Klucel (hydroxypropylcellulose) (HPC) 89 % of control | [4] 104 % of control

COc1ccc(C=[N+](C)CCc2ccc(OC)c(OC)c2)cc1OC
inactive: dose: 25.0 mg/kg/injection, schedule: Q01DX009 (ip), vehicle: saline 96 % of control | dose: 50.0 mg/kg/injection, schedule: Q01DX009 (ip), vehicle: saline 101 % of control | [5] 93 % of control and 116 % of control | [6] 100 % of control | [7] 98 % of control and 91 % of control | [8] 97 % of control

CC1(Br)C(=O)C(O)=C(Br)C1=O (centres undefined)
inactive: dose: 75.0 mg/kg/injection, schedule: Q01DX001 (ip), vehicle: saline 104 % of control | dose: 150.0 mg/kg/injection, schedule: Q01DX001 (ip), vehicle: saline 106 % of control

c1ccc2cc3c(cc2c1)oc1cc2ccccc2cc13
inactive: [14] 120 % of control | [15] 101 % of control | [16] 107 % of control

Nc1nc(N)c(N=Nc2ccc(S(=O)(=O)c3ccc(N=Nc4c(N)nc(N)[nH]c4=O)cc3)cc2)c(=O)[nH]1
inactive: [1] 91 % of control | [2] 96 % of control | [3] 91 % of control

CC(C)C(N)C(=O)OC(=O)C(N)CCCCN (centres undefined)
inactive: dose: 12.5 mg/kg/injection, schedule: Q04DX002 (ip), vehicle: saline 107 % of control | dose: 25.0 mg/kg/injection, schedule: Q04DX002 (ip), vehicle: saline 104 % of control | dose: 50.0 mg/kg/injection, schedule: Q04DX002 (ip), vehicle: saline 101 % of control | [1] 108 % of control | [2] 101 % of control | [3] 98 % of control

COc1ccc(C(O)SP(=S)(OC)c2ccc(OC)cc2)cc1 (centres undefined)
inactive: dose: 50.0 mg/kg/injection, schedule: Q01DX009 (ip), vehicle: saline with Tween-80 100 % of control | dose: 100.0 mg/kg/injection, schedule: Q01DX009 (ip), vehicle: saline with Tween-80 100 % of control | [9] 92 % of control | dose: 200.0 mg/kg/injection, schedule: Q01DX009 (ip), vehicle: saline with Tween-80 95 % of control | [10] 88 % of control

O=c1c2ccccc2[nH]c2ccccc12
inactive: dose: 50.0 mg/kg/injection, schedule: Q04DX003 (ip), vehicle: Klucel (hydroxypropylcellulose) (HPC) 103 % of control | dose: 100.0 mg/kg/injection, schedule: Q01DX001 (ip), vehicle: Klucel (hydroxypropylcellulose) (HPC) 95 % of control | dose: 100.0 mg/kg/injection, schedule: Q01DX Z (ip), vehicle: carboxymethylcellulose (CMC) 96 % of control | [14] 101 % of control | dose: 200.0 mg/kg/injection, schedule: Q01DX001 (ip), vehicle: Klucel (hydroxypropylcellulose) (HPC) 98 % of control | dose: 200.0 mg/kg/injection, schedule: Q01DX Z (ip), vehicle: carboxymethylcellulose (CMC) 103 % of control | [15] 106 % of control and 97 % of control | dose: 400.0 mg/kg/injection, schedule: Q01DX001 (ip), vehicle: Klucel (hydroxypropylcellulose) (HPC) 95 % of control | dose: 400.0 mg/kg/injection, schedule: Q01DX Z (ip), vehicle: carboxymethylcellulose (CMC) 105 % of control | [16] 103 % of control and 96 % of control

Cc1nc2c(Cl)cc(Cl)cc2c2c1-c1ccccc1C2=O
inactive: dose: 100.0 mg/kg/injection, schedule: Q04DX003 (ip), vehicle: acetone 89 % of control | dose: 200.0 mg/kg/injection, schedule: Q04DX003 (ip), vehicle: acetone 89 % of control | dose: 400.0 mg/kg/injection, schedule: Q04DX003 (ip), vehicle: acetone 97 % of control

COc1ccc(NC(=O)/C=N/O)c(Cl)c1
inactive: dose: 200.0 mg/kg/injection, schedule: Q01DX001 (ip), vehicle: carboxymethylcellulose (CMC) 94 % of control | dose: 400.0 mg/kg/injection, schedule: Q01DX001 (ip), vehicle: carboxymethylcellulose (CMC) 90 % of control

O=[N+]([O-])c1c(Cl)ccc2nsnc12
inactive: dose: 12.5 mg/kg/injection, schedule: Q04DX003 (ip), vehicle: Klucel (hydroxypropylcellulose) (HPC) 96 % of control | dose: 25.0 mg/kg/injection, schedule: Q04DX003 (ip), vehicle: Klucel (hydroxypropylcellulose) (HPC) 93 % of control

CN(CCC(=O)c1ccccc1)C(C)(C)C
inactive: [6] 100 % of control
